Assay results published in ChEMBL document CHEMBL1137405, “Structural basis for the structure-activity relationships of peroxisome proliferator-activated receptor agonists” (J Med Chem, 2006).

Columns and labels:
[1] = target: T1, Peroxisome proliferator-activated receptor delta (Homo sapiens, UniProt Q03181); test: Activity at human PPAR delta in Huh7 cells by transactivation assay; format: cell-based, Huh-7
T1 sequence (Q03181 whole entry): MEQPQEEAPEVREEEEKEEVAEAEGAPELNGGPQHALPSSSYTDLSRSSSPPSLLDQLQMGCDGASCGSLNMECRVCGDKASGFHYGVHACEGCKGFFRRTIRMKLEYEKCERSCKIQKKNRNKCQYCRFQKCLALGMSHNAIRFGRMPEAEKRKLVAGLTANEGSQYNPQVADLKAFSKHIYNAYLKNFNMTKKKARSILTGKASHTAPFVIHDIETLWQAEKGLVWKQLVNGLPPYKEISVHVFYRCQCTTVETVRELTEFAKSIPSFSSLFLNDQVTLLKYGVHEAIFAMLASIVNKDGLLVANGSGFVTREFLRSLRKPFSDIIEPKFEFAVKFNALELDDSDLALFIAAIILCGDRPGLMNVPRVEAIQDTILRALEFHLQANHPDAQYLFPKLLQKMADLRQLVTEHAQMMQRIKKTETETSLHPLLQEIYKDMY

[2] = target: T2, Peroxisome proliferator-activated receptor alpha (Homo sapiens, UniProt Q07869); test: (§1) Activity at human PPAR alpha in Huh7 cells by transactivation assay; format: cell-based, Huh-7
T2 sequence (Q07869 whole entry): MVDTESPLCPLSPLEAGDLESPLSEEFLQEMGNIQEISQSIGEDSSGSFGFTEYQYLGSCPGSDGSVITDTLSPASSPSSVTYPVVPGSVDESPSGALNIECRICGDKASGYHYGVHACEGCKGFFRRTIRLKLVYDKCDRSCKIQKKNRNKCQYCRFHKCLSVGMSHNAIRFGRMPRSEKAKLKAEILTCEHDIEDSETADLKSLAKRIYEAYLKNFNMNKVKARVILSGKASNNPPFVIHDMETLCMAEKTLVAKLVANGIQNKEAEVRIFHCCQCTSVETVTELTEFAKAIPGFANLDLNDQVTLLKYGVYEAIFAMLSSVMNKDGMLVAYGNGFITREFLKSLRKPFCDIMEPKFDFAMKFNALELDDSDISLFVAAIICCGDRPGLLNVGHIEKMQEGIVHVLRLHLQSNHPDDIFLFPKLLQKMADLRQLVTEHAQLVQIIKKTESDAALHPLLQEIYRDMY

[3] = target: T3, Peroxisome proliferator-activated receptor alpha (Homo sapiens) (UniProt Q07869); test: as §1; format: cell-based; details: Huh-7, filed as agonist
T3 sequence (whole entry): T2 sequence (Q07869 whole entry)

[4] = target: T4, Peroxisome proliferator-activated receptor gamma (Homo sapiens, UniProt P37231); format: cell-based, Huh-7
T4 sequence (P37231 whole entry): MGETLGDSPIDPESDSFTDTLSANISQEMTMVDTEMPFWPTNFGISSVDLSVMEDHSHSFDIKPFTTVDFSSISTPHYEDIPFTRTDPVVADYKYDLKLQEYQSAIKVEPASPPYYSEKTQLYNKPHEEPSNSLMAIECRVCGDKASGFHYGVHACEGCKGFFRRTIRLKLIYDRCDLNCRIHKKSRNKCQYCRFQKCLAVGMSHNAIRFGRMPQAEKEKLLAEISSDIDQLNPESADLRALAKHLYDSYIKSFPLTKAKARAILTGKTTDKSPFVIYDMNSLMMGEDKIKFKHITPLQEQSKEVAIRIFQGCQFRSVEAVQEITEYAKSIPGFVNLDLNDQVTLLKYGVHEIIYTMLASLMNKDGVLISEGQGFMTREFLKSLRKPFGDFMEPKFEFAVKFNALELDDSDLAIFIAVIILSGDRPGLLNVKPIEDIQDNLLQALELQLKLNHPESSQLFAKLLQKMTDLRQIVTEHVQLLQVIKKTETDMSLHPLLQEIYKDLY
Description: Activity at human PPAR gamma in Huh7 cells by transactivation assay

Row | SMILES | EC50 [1] | EC50 [2] | Activity [3] | EC50 [4]
1 | CCCc1c(OCCCn2ccc3c(OC(C)(C)C(=O)O)cccc32)ccc2cc(C(=O)c3ccccc3)ccc12 | 4.3 µM | 0.282 µM | Agonist | 0.21 µM
2 | CCCc1c(OCCCOc2ccc3c(ccn3CC(=O)O)c2)ccc2cc(C(=O)c3ccccc3)ccc12 | – | – | Agonist | –
3 | CCCc1c(OCCCn2ccc3cc(OC(C)(C)C(=O)O)ccc32)ccc2cc(C(=O)c3ccccc3)ccc12 | > 10 µM | 0.123 µM | Agonist | 0.65 µM
4 | CCCc1c(OCCCn2ccc3c(OCC(=O)O)cccc32)ccc2cc(C(=O)c3ccccc3)ccc12 | > 10 µM | 0.206 µM | – | 4.22 µM
5 | CCCc1c(OCCCn2ccc3cc(OCC(=O)O)ccc32)ccc2cc(C(=O)c3ccccc3)ccc12 | > 10 µM | 0.032 µM | Agonist | 2.21 µM

Second part, the compound after the results:

Row | EC50 [1] | EC50 [2] | Activity [3] | EC50 [4] | SMILES
6 | 6.98 µM | 2.08 µM | – | 3.47 µM | CCCc1c(OCCCn2ccc3ccc(OCC(=O)O)cc32)ccc2cc(C(=O)c3ccccc3)ccc12
7 | 4.63 µM | 1.1 µM | – | 0.47 µM | CCCc1c(OCCCn2ccc3ccc(OC(C)(C)C(=O)O)cc32)ccc2cc(C(=O)c3ccccc3)ccc12
